This is an account of results in ChEMBL document CHEMBL3102856, “The marine cyanobacterial metabolite gallinamide A is a potent and selective inhibitor of human cathepsin L” (J Nat Prod, 2014).

For assay [1], the target named is T1, Procathepsin L (Homo sapiens, UniProt P07711). Put plainly: Irreversible inhibition of recombinant human Cathepsin L using Z-Phe-Arg-aminomethylcoumarin as substrate assessed as residual activity at 10 fold IC50 preincubated for 30 mins followed by 100 fold dilution measured for 2 hrs by fluorescence assay.
Target sequence in this assay (P07711 114-333 limits assumed): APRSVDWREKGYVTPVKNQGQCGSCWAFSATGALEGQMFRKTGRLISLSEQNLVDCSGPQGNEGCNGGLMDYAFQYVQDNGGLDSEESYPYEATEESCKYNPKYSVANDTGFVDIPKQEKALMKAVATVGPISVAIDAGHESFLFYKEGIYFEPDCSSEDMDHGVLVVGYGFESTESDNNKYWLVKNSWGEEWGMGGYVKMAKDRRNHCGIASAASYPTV
The species entered for assay [2] is Homo sapiens. Nature of the assay: Selectivity index, ratio of IC50 for human Cathepsin B to IC50 for recombinant human Cathepsin L using Z-Phe-Arg-aminomethylcoumarin as substrate.
For assay [3], the target named is T1, Procathepsin L. Put plainly: Inhibition of recombinant human Cathepsin L using Z-Phe-Arg-aminomethylcoumarin as substrate preincubated for 30 mins followed by substrate addition.
Target sequence in this assay (P07711 whole entry): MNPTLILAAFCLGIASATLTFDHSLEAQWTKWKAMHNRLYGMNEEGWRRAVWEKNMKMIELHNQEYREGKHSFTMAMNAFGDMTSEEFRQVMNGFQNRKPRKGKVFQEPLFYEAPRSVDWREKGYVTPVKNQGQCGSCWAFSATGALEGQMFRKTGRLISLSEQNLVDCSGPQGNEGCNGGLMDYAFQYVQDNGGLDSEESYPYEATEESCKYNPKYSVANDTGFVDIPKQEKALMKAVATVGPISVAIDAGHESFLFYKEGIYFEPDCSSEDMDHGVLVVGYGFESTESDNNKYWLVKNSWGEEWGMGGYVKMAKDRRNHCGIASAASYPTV
Assay [4] has as its target T1, Procathepsin L. Nature of the assay: Inhibition of recombinant human Cathepsin L assessed as inhibition of activity-based probe DCG-04 labelling preincubated for 30 mins followed by DCG-04 addition measured after 30 mins.
Target sequence in this assay (P07711 114-333 limits assumed): as the sequence (P07711 114-333 limits assumed) above
The target of assay [5] is T2, Cathepsin L2 (Homo sapiens, UniProt O60911).
T2 sequence (O60911 whole entry): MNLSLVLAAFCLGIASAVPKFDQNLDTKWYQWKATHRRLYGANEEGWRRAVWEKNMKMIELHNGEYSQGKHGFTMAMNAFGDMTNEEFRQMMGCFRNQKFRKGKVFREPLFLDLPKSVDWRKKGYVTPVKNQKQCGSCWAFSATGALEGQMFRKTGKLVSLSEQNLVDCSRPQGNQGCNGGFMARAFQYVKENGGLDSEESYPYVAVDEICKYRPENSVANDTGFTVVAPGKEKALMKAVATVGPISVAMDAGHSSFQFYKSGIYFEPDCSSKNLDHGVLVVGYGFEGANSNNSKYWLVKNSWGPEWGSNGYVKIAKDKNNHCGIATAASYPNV
Nature of the assay: Inhibition of human Cathepsin V using Z-Phe-Arg-aminomethylcoumarin as substrate.

Assay [6] deals with T3, Pro-cathepsin H (Homo sapiens, UniProt P09668).
T3 sequence (P09668 whole entry): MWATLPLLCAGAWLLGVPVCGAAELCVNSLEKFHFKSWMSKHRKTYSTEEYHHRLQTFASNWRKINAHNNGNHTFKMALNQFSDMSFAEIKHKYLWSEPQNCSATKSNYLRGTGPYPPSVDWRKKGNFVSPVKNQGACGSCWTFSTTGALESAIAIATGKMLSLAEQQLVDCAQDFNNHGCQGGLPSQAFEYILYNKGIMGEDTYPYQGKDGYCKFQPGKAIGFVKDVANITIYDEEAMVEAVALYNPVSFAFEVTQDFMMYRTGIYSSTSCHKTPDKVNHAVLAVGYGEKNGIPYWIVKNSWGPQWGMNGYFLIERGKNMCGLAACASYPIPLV
Put plainly: Inhibition of human Cathepsin H using Arg-aminomethylcoumarin as substrate preincubated for 30 mins followed by substrate addition.

In assay [7] the target is T4, Cathepsin B (Homo sapiens, UniProt P07858). Nature of the assay: Inhibition of human Cathepsin B using Z-Phe-Arg-aminomethylcoumarin as substrate preincubated for 30 mins followed by substrate addition.
For assay [8], the target named is T4, Cathepsin B. Put plainly: Inhibition of human Cathepsin B using Z-Phe-Arg-aminomethylcoumarin as substrate.
Assay [9] is filed under the species Homo sapiens. Nature of the assay: Selectivity index, ratio of IC50 for human Cathepsin V to IC50 for recombinant human Cathepsin L using Z-Phe-Arg-aminomethylcoumarin as substrate preincubated for 30 mins followed by substrate addition.
Assay [10] addresses T3, Pro-cathepsin H. Nature of the assay: Inhibition of human Cathepsin H using Arg-aminomethylcoumarin as substrate.
Assay [11] has as its target T2, Cathepsin L2. Nature of the assay: Inhibition of human Cathepsin V using Z-Phe-Arg-aminomethylcoumarin as substrate preincubated for 30 mins followed by substrate addition.
The target in assay [12] is T1, Procathepsin L. Nature of the assay: Inhibition of recombinant human Cathepsin L using Z-Phe-Arg-aminomethylcoumarin as substrate.
The target of assay [13] is T1, Procathepsin L. Nature of the assay: Irreversible inhibition of recombinant human cathepsin L using Z-Phe-Arg-aminomethylcoumarin as substrate.
Target sequence in this assay (P07711 whole entry): as the sequence (P07711 whole entry) above
The species entered for assay [14] is Homo sapiens. Put plainly: Selectivity index, ratio of IC50 for human Cathepsin V to IC50 for recombinant human Cathepsin L using Z-Phe-Arg-aminomethylcoumarin as substrate.
The species named for assay [15] is Homo sapiens. Nature of the assay: Selectivity index, ratio of IC50 for human Cathepsin B to IC50 for recombinant human Cathepsin L after 30 mins using Z-Phe-Arg-aminomethylcoumarin as substrate preincubated for 30 mins followed by substrate addition.

Calls of active or inactive are those of the source. The rule behind the calls is not given here.

The IC50 is the point on the concentration scale where inhibition reaches its midpoint. On to `CC[C@H](C)[C@@H](C(=O)O[C@@H](CC(C)C)C(=O)N[C@@H](CC(C)C)C(=O)N[C@@H](C)/C=C/C(=O)N1C(=O)C=C(OC)[C@@H]1C)N(C)C` [GALLINAMIDE A], for which, on Procathepsin L [1], the inhibition entry is “Active”. The Ratio IC50 in the assay listed under Homo sapiens [2] worked out at 91; in the assay filed under Homo sapiens [9], 28; in the assay listed under Homo sapiens [14] it was 10; in the assay filed under Homo sapiens [15], 320. The IC50 on Procathepsin L [3] is 5 nM; against Cathepsin L2 [5] it was 460 nM; at Pro-cathepsin H [6] it was above 30000 nM; at Cathepsin B [7], 1700 nM; on Cathepsin B [8] it was 4200 nM; against Pro-cathepsin H [10] it was above 30000 nM. Moreover, the IC50 against Cathepsin L2 [11] worked out at 140 nM; on Procathepsin L [12], 47 nM. Moreover, the inhibition result on Procathepsin L [4] was “Dose-dependent effect”; on Procathepsin L [12] (TDE = time-dependent effect) it was “tde”. Also, the Ki at Procathepsin L [13] was found to be 9000 M⁻¹ s⁻¹.
